{"source": "patent US5955508A", "about": "“Method for the enhancement of lymphocyte activity against opportunistic microbial pathogens” (priority 1996, dated 1999)", "key": {"T-cell counts": {"system": "T-cell counts", "conditions": "AIDS patients; fenfluramine with phentermine; cited from earlier work"}, "[1]": {"system": "human percoll-fractionated peripheral blood lymphocytes mediated NK activity", "conditions": "in vitro, cited from earlier work"}, "fungal infections": {"system": "fungal infections", "conditions": "AIDS patients; cited from earlier work"}, "[2]": {"assay": "Plasma d-FEN and d-norFEN levels and half-life in mice", "format": "in vivo", "conditions": "mouse; d-FEN p.o. in drinking water; sacrificed 11:00-13:00 h", "procedure": "Mice like rats are prandial drinkers during the dark period of the light-dark cycle. The animals were sacrificed between 11:00 and 13:00 h, 4-6 h after the end of the dark period."}, "K562 human tumor cells": {"system": "K562 human tumor cells", "assay": "Natural killer cell cytotoxicity of human PBMC against K562 tumor cells in vitro", "format": "cell-based", "procedure": "Prior to conducting the above experiment, we examined the dose dependent effects of d-FEN on the ability of human PBMC obtained from five healthy volunteers (person Caucasians) to kill human K562 tumor cells in vitro. The potential cytotoxic enhancing effects of d-FEN and d-norFEN were compared using PBMC from two of the five human donors.\nFor assessment of immunological parameters of human PBMC, venous blood as aseptically drawn into sterile 10 ml tubes containing 20 U/ml preservative free heparin, diluted with an equal volume of Hank's Balanced Salt Solution (HBSS), layered over Lymphocyte Separation Medium (LSM, Bionetics, Kensington, Md.) and centrifuged at 1,000 ×g for 30 min. After centrifugation, the mononuclear cell layer was recovered from the interface and washed twice in HBSS and enumerated.\nThe K562 cell line originated from a chronic myelogenous leukemia patient and was obtained from Dr. T. Ellis (Director, Cellular Immunology Laboratory, LUMC). The K562 cells used for assessment of cytotoxic activity were maintained in long term cultures using Corning 25 cm^2 tissue culture flasks (Corning Glass Works, Corning, N.Y.) containing RPMI 1640 (Gibco Laboratories, Grand Island, N.Y.) supplemented with low LPS 10% fetal bovine serum (FBS; Gibco), 100 units/ml penicillin, 100 μg/ml streptomycin (Whittaker M. A. Bioproducts, Walkersville, Md.), 0.1 mM non-essential amino acids, and 2 mM L-glutamine (Gibco). This medium was used throughout, except where noted, and is referred to as \"culture medium\". The K562 cells were grown in suspension and were passaged three times per week by transfer of 10^6 K562 cells into a flask containing 10 ml of fresh culture medium. The K562 cells injected into the SCID mice were supplemented with fresh medium at a 1:3 dilution the day before administration. They were washed once in medium, pelleted by centrifugation at 500 ×g for 10 min., then resuspended at a concentration of 5×10^7. Subsequently, 0.2 ml (1×10^7 cells) of the cell suspension was injected (i.p.) into each SCID mouse. The K562 cells were administered to the animals four days after the injection of PBMC.\nThe K562 tumor cell lines maintained in vitro were washed once in culture medium, pelleted by centrifugation at 500×g for 10 min and resuspended in approximately 0.1 ml of culture medium. Subsequently, 100 μCi of [^51 Cr] (New England Nuclear, Boston, Mass.) was added to 1×10^5 cells in a final volume of 0.2 ml. The cells were incubated at 37° C. with 5% CO2 for 1 h with agitation every 10 min, then washed 3 times in HBSS, resuspended to 5×10^4 cells/ml in culture medium and 0.1 ml (5×10^3) aliquoted to each well of a 96 well round bottom assay plate (Corning Glass Works, Corning, N.Y.). Radiolabelled K562 was cultured for 4 h with lymphocytes at effector to target ratios ranging from 50:1 to 6:1. Following 4 h of culture the media was removed using a Skatron harvesting press (Skatron Inc., Sterling, Va.) and associated radioactivity determined. Maximum release was obtained by adding 0.05% Nonidet P-40 (Sigma Chemical Co., St. Louis, Mo.).\nThe results have been expressed as % cytotoxicity and calculated by the formula: % cytotoxicity=[(experimental DPM-minimum DPM)/(maximum DPM-minimum DPM)]×100.\nAll experimental means were calculated from triplicate values. Lytic units (LU) were calculated using a computer program written by David Coggins, FCRC, Frederick, Md."}, "[3]": {"conditions": "mouse; cited from earlier work"}}, "data": [{"compound": "CCNC(C)Cc1cccc(C(F)(F)F)c1", "note": "(racemic) [fenfluramine]", "values": [{"measurement": "T-cell counts in words", "setting": "T-cell counts", "value": "significant improvement of their T-cell counts"}]}, {"compound": "NCCc1c[nH]c2ccc(O)cc12", "note": "[5-HT]", "values": [{"measurement": "effect on NK activity in words", "setting": "[1]; 5-HT dose dependent", "value": "stimulatory effects"}, {"measurement": "duration of NK stimulation", "setting": "[1]", "value": 16, "unit": "h"}]}, {"compound": "C[C@@H]1[C@H](O)[C@@H](C)/C=C/C=C/C=C/C=C/C=C/C=C/C=C/[C@H](O[C@@H]2O[C@H](C)[C@@H](O)[C@H](N)[C@@H]2O)C[C@@H]2O[C@](O)(C[C@@H](O)C[C@@H](O)[C@H](O)CC[C@@H](O)C[C@@H](O)CC(=O)O[C@H]1C)C[C@H](O)[C@H]2C(=O)O", "note": "[amphotericin B]", "values": [{"measurement": "effect on fungal infections in words", "setting": "fungal infections", "value": "can suppress fungal infections, but for the first time appear to have no curative effect in AIDS patients"}]}, {"compound": "C[C@H](N)Cc1cccc(C(F)(F)F)c1", "note": "[d-norFEN]", "values": [{"measurement": "plasma d-FEN and d-norFEN levels at sacrifice", "setting": "[2]", "value": "Neither d-FEN nor d-norFEN was detected"}, {"measurement": "percent increase in cytotoxicity", "setting": "K562 human tumor cells; 0.25 ng/ml, DONOR #1", "value": 29, "unit": "%"}, {"measurement": "percent increase in cytotoxicity", "setting": "K562 human tumor cells; 0.25 ng/ml, DONOR #2", "value": 19, "unit": "%"}, {"measurement": "percent increase in cytotoxicity", "setting": "K562 human tumor cells; 0.50 ng/ml, DONOR #1", "value": 24, "unit": "%"}, {"measurement": "percent increase in cytotoxicity", "setting": "K562 human tumor cells; 0.50 ng/ml, DONOR #2", "value": 28, "unit": "%"}, {"measurement": "percent increase in cytotoxicity", "setting": "K562 human tumor cells; 1.00 ng/ml, DONOR #1", "value": 11, "unit": "%"}, {"measurement": "percent increase in cytotoxicity", "setting": "K562 human tumor cells; 1.00 ng/ml, DONOR #2", "value": 13, "unit": "%"}, {"measurement": "d-FEN vs d-norFEN effect on cytotoxicity in words", "setting": "K562 human tumor cells; PBMC of two donors", "value": "virtually identical effects"}, {"measurement": "effect on capacity of human NK cells to kill K562, in words", "setting": "K562 human tumor cells; conclusion", "value": "augments the capacity of human NK cells to kill the human tumor cell line, K562"}, {"measurement": "t1/2", "setting": "[3]", "value": 6, "unit": "h"}]}]}
